Test results: ChEMBL document CHEMBL1201862, “PubChem BioAssay data set” (2004)
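Briefly, cells in 96-well plates were exposed to five compound concentrations for 48 h, and endpoints were estimated by linear interpolation. Abbreviation: GI50, concentration required for 50% inhibition of growth.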 Activity calls are given as the source filed them. Rule as the data show it: active = GI50 up to about 1.1 µM and inactive = higher.

Tests used:
Assay in all cases: NCI tumour cell line growth inhibition, 48 h
786-0 = tested on: 786-0
A498 = tested on: A498
A549 = tested on: A549
ACHN = tested on: ACHN
BT-549 = tested on: BT-549
CAKI-1 = tested on: CAKI-1
CCRF-CEM = tested on: CCRF-CEM
COLO 205 = tested on: COLO 205
DU-145 = tested on: DU-145
EKVX = tested on: EKVX
HCC 2998 = tested on: HCC 2998
HCT-116 = tested on: HCT-116
HCT-15 = tested on: HCT-15
HL-60 = tested on: HL-60
HOP-92 = tested on: HOP-92
IGROV-1 = tested on: IGROV-1
K562 = tested on: K562
KM12 = tested on: KM12
LOX IMVI = tested on: LOX IMVI
M14 = tested on: M14
MCF7 = tested on: MCF7
MDA-MB-231 = tested on: MDA-MB-231
MDA-MB-435 = tested on: MDA-MB-435
MDA-N = tested on: MDA-N
MOLT-4 = tested on: MOLT-4
Malme-3M = tested on: Malme-3M
NCI-H23 = tested on: NCI-H23
NCI-H460 = tested on: NCI-H460
NCI-H522 = tested on: NCI-H522
NCI/ADR-RES = tested on: NCI/ADR-RES
OVCAR-3 = tested on: OVCAR-3
OVCAR-4 = tested on: OVCAR-4
OVCAR-5 = tested on: OVCAR-5
OVCAR-8 = tested on: OVCAR-8
PC-3 = tested on: PC-3
RPMI-8226 = tested on: RPMI-8226
RXF 393 = tested on: RXF 393
SF-295 = tested on: SF-295
SF-539 = tested on: SF-539
SK-MEL-28 = tested on: SK-MEL-28
SK-MEL-2 = tested on: SK-MEL-2
SK-MEL-5 = tested on: SK-MEL-5
SK-OV-3 = tested on: SK-OV-3
SN12C = tested on: SN12C
SNB-19 = tested on: SNB-19
SNB-75 = tested on: SNB-75
SR = tested on: SR
SW-620 = tested on: SW-620
TK-10 = tested on: TK-10
U-251 = tested on: U-251
UACC-257 = tested on: UACC-257
UACC-62 = tested on: UACC-62
UO-31 = tested on: UO-31
HT-29 = tested on: HT-29
NCI-H226 = tested on: NCI-H226
T47D = tested on: T47D

In the case of CC(C)CC(NC(=O)C(CSc1ccc([N+](=O)[O-])cc1)Cc1ccccc1)C(=O)Nc1ccccc1 (centres undefined), the GI50 (786-0) is reported as 44.7 µM (inactive), the GI50 (A498) is reported as > 100 µM (inactive) and the GI50 (A549) is reported as 93.5 µM (inactive). For the same compound, the GI50 (ACHN) was 80.7 µM (inactive), the GI50 (BT-549) was 12.3 µM (inactive) and the GI50 (CAKI-1) was 72.1 µM (inactive). The GI50 (CCRF-CEM) was 33.1 µM (inactive), the GI50 (COLO 205) was > 100 µM (inactive) and the GI50 (DU-145) was 89.3 µM (inactive). For the same compound, the GI50 (EKVX) was > 100 µM (inactive), the GI50 (HCC 2998) was > 100 µM (inactive) and the GI50 (HCT-116) was > 100 µM (inactive). The GI50 (HCT-15) was over 100 µM, the GI50 (HL-60) was 40.9 µM (inactive) and the GI50 (HOP-92) was > 100 µM (inactive). The GI50 (IGROV-1) was 46.6 µM (inactive), the GI50 (K562) was 85.5 µM (inactive) and the GI50 (KM12) was 41.4 µM (inactive). For the same compound, the GI50 (LOX IMVI) was > 100 µM (inactive), the GI50 (M14) was 99.8 µM (inactive) and the GI50 (MCF7) was 63.7 µM (inactive). The GI50 (MDA-MB-231) was > 100 µM (inactive), the GI50 (MDA-MB-435) was > 100 µM (inactive) and the GI50 (MDA-N) was > 100 µM (inactive). The GI50 (MOLT-4) was 59 µM (inactive), the GI50 (Malme-3M) was 27 µM (inactive) and the GI50 (NCI-H23) was > 100 µM (inactive). The GI50 (NCI-H460) was 49.8 µM (inactive), the GI50 (NCI-H522) was 64.9 µM (inactive) and the GI50 (NCI/ADR-RES) was 30.2 µM (inactive). For the same compound, the GI50 (OVCAR-3) was > 100 µM (inactive), the GI50 (OVCAR-4) was 35.1 µM (inactive) and the GI50 (OVCAR-5) was > 100 µM (inactive). The GI50 (OVCAR-8) was 48.8 µM (inactive), the GI50 (PC-3) was > 100 µM (inactive) and the GI50 (RPMI-8226) was > 100 µM (inactive). The GI50 (RXF 393) was > 100 µM (inactive), the GI50 (SF-295) was 39.1 µM (inactive) and the GI50 (SF-539) was 47.9 µM (inactive). The GI50 (SK-MEL-28) was 98.2 µM (inactive), the GI50 (SK-MEL-2) was > 100 µM (inactive) and the GI50 (SK-MEL-5) was 64.3 µM (inactive). For the same compound, the GI50 (SK-OV-3) was > 100 µM (inactive), the GI50 (SN12C) was > 100 µM (inactive) and the GI50 (SNB-19) was 45.5 µM (inactive). For the same compound, the GI50 (SNB-75) was 26.4 µM (inactive), the GI50 (SR) was > 100 µM (inactive) and the GI50 (SW-620) was > 100 µM (inactive). The GI50 (TK-10) was 58.2 µM (inactive), the GI50 (U-251) was > 100 µM (inactive) and the GI50 (UACC-257) was > 100 µM (inactive). The GI50 (UACC-62) was > 100 µM (inactive) and the GI50 (UO-31) was 43.1 µM (inactive).

In the case of C=C1CC[C@H]2C(C)=CC[C@H]3C(=C)C(=O)O[C@@H]3[C@@H]12 [EREMANTHIN], the GI50 (786-0) is reported as > 100 µM (inactive), the GI50 (A498) is reported as > 100 µM (inactive) and the GI50 (A549) is reported as > 100 µM (inactive). For the same compound, the GI50 (ACHN) was > 100 µM (inactive), the GI50 (BT-549) was > 100 µM (inactive) and the GI50 (CAKI-1) was > 100 µM (inactive). The GI50 (CCRF-CEM) was > 100 µM (inactive), the GI50 (COLO 205) was 92 µM (inactive) and the GI50 (DU-145) was > 100 µM (inactive). For the same compound, the GI50 (EKVX) was > 100 µM (inactive), the GI50 (HCC 2998) was > 100 µM (inactive) and the GI50 (HCT-116) was > 100 µM (inactive). The GI50 (HCT-15) was over 100 µM, the GI50 (HL-60) was > 100 µM (inactive) and the GI50 (HOP-92) was > 100 µM (inactive). The GI50 (HT-29) was > 100 µM (inactive), the GI50 (IGROV-1) was > 100 µM (inactive) and the GI50 (K562) was > 100 µM (inactive). The GI50 (LOX IMVI) was > 100 µM (inactive), the GI50 (M14) was > 100 µM (inactive) and the GI50 (MCF7) was > 100 µM (inactive). The GI50 (MDA-MB-231) was > 100 µM (inactive), the GI50 (MDA-MB-435) was > 100 µM (inactive) and the GI50 (MDA-N) was > 100 µM (inactive). The GI50 (MOLT-4) was > 100 µM (inactive), the GI50 (Malme-3M) was > 100 µM (inactive) and the GI50 (NCI-H226) was > 100 µM (inactive). For the same compound, the GI50 (NCI-H23) was > 100 µM (inactive), the GI50 (NCI-H460) was > 100 µM (inactive) and the GI50 (NCI-H522) was > 100 µM (inactive). For the same compound, the GI50 (NCI/ADR-RES) was > 100 µM (inactive), the GI50 (OVCAR-4) was > 100 µM (inactive) and the GI50 (OVCAR-5) was > 100 µM (inactive). The GI50 (OVCAR-8) was > 100 µM (inactive), the GI50 (PC-3) was > 100 µM (inactive) and the GI50 (SF-295) was > 100 µM (inactive). For the same compound, the GI50 (SF-539) was > 100 µM (inactive), the GI50 (SK-MEL-28) was > 100 µM (inactive) and the GI50 (SK-MEL-2) was > 100 µM (inactive). For the same compound, the GI50 (SK-MEL-5) was > 100 µM (inactive), the GI50 (SK-OV-3) was > 100 µM (inactive) and the GI50 (SN12C) was > 100 µM (inactive). For the same compound, the GI50 (SNB-19) was > 100 µM (inactive), the GI50 (SR) was > 100 µM (inactive) and the GI50 (SW-620) was > 100 µM (inactive). For the same compound, the GI50 (T47D) was > 100 µM (inactive), the GI50 (TK-10) was > 100 µM (inactive) and the GI50 (U-251) was > 100 µM (inactive). The GI50 (UACC-257) was > 100 µM (inactive), the GI50 (UACC-62) was > 100 µM (inactive) and the GI50 (UO-31) was > 100 µM (inactive).
